The text below walks through data of patent publication US8779144B2, “Bicycloheteroaryl compounds as P2X7 modulators and uses thereof” (Evotec (US) Inc., priority 2006, dated 2014).

The subject of data set [1] is IL-1β release from THP-1 cells. Description: IL-1β release assay in differentiated THP-1 cells stimulated with BzATP (ELISA). Format: cell-based. The following applies: Homo sapiens; for inhibition at 0.3 µM: 0.3 uM compound, BzATP 250 uM, read-out: IL-1β % Inhib. @ 0.3 uM.; for IC50: released IL-1β as in Example 9, four parameter logistic fit, read-out: IL-Iβ IC50. As for the experimental part:
THP-1 cells (ATCC Cat #285-IF-100) are plated in 96 well plates at a concentration of 200,000 cells per well and allowed to differentiate in RPMI-1640 media (ATCC Cat #30-2001) containing 10% FBS, 100 IU/mL penicillin, 100 ug/mL streptomycin, 100 ng/mL LPS and 100 ng/mL IFN-γ for 16 hours. Following differentiation, the cells are treated for an additional 2 hours in RPMI-1640 media containing 100 IU/mL penicillin, 100 ug/mL streptomycin and fresh LPS at 100 ng/mL. The cells are then pretreated for 30 minutes with the compound of interest at the appropriate concentration in RPMI media containing 100 IU/mL penicillin, 100 ug/mL streptomycin. Following the pretreatment 2′,3′-O-(4-benzoylbenzoyl)-adenosine 5′-triphosphate (Sigma Aldrich Cat # B6396) is added to a final concentration of 250 uM and the cells are incubated for an additional 45 minutes. 30 uL of cell supernatant is then collected and IL-113 levels determined via ELISA (R&D systems Cat. # HSLB50) according to manufacturer's recommendations using the Tecan Safire plate reader. Background adjusted IL-1β levels of drug treated and non-treated cells are used to calculate the percent inhibition. […]
The compounds set forth in Table 1 were tested for activity in a cellular model as described herein. Specifically, cells were pretreated with differing amounts of the compound under test and released IL-1β determined as in Example 9, above. Measurements were made and IC50 values, presented in Table 2, below, were determined by fitting the data to a four parameter logistic equation using GraphPad Prism software (GraphPad Software, Inc). The equation may be expressed by the following formula: Y=Bottom+(Top−Bottom)/(1+10^((LogEC50−X)*HillSlope)) Where X is the logarithm of concentration, Y is the response and Y starts at Bottom and goes to Top with a sigmoid shape.
Background: An ELISA detects its analyte on a solid surface through an enzyme-linked reagent.

Data set [2] can be described thus: Half-life in human liver microsomes (HLM). The format is in vitro ADME. The settings on record: 1 μM compound, 0.78 mg/mL HLM, NADPH, pH 7.4, 37° C. On the technique in general: Liver microsomes are vesicles of endoplasmic reticulum, rich in cytochrome P450 enzymes.
Protocol: Test compounds (1 μM) are incubated with 3.3 mM MgCl2 and 0.78 mg/mL HLM (HL101) in 100 mM potassium phosphate buffer (pH 7.4) at 37° C. on the 96-deep well plate. The reaction mixture is split into two groups, a non-P450 and a P450 group. NADPH is only added to the reaction mixture of the P450 group. An aliquot of samples of P450 group is collected at 0, 10, 30, and 60 min time point, where 0 min time point indicated the time when NADPH is added into the reaction mixture of P450 group. An aliquot of samples of non-P450 group is collected at −10 and 65 min time point. Collected aliquots are extracted with acetonitrile solution containing an internal standard. The precipitated protein is spun down in centrifuge (2000 rpm, 15 min). The compound concentration in supernatant is measured by LC/MS/MS system.
The half-life value is obtained by plotting the natural logarithm of the peak area ratio of compounds/internal standard versus time. The slope of the line of best fit through the points yields the rate of metabolism (k). This is converted to a half-life value using following equations: Half-life=ln 2/k

As a reminder, the IC50 is the concentration that gives 50% inhibition. For orientation: half-life means how long it takes for the measured level to halve. As to `Cn1ccc2c(C(=O)NCC3(O)CCCCCC3)cccc2c1=O` [Compound 2032], in data set [1], the inhibition at 0.3 µM was greater than 76% and the IC50 came out at 48.6 nM. In data set [2], this compound had a half-life at 1 μM of 22.8 min.
In the case of `CC1(C)CCCC(O)(CNC(=O)c2ncnc3c2CCN(Cc2ccccc2)C3)C1` (stereo not shown) [Compound 2017], in data set [1], the inhibition at 0.3 µM was 0 to 25%.
Same read-out and setting: under `O=C(NCC1CCCCC1)c1ncnc2c1CCNC2` [Compound 2002, 5,6,7,8-Tetrahydro-pyrido[3,4-d]pyrimidine-4-carboxylic acid cyclohexylmethyl-amide] stands 0 to 25%.
For the compound `C[C@@H](C(N)=O)n1ccc2c(C(=O)NCc3ccc(Cl)c(C(F)(F)F)c3)cccc2c1=O` [Compound 2059, 2-((S)-1-Carbamoyl-ethyl)-1-oxo-1,2-dihydro-isoquinoline-5-carboxylic acid 4-chloro-3-trifluoromethyl-benzylamide], in data set [1], the inhibition at 0.3 µM is greater than 76% and the half-inhibitory concentration (IC50) was 77.4 nM.
The matching figures for `O=C(NCc1ccc(F)c(Cl)c1)c1cccc2c(=O)n(C3CC3)ccc12` [Compound 2073]: greater than 76% and 152 nM.
For the compound `O=C(NCc1ccc(C(F)(F)F)c(F)c1)c1cccc2c(=O)n(C3CC3)ccc12` [Compound 2076], in data set [1], the inhibition at 0.3 µM was greater than 76% and the concentration for half-maximal inhibition (IC50) came to 119 nM.
Regarding `Cc1ccc2c(c1C(=O)NCc1ccc(C(F)(F)F)c(F)c1)CCN(C(=O)C1(C)CC1)C2` [Compound 2082], in data set [1], the inhibition at 0.3 µM is 0 to 25% and the IC50 is 667 nM.
Regarding `C[C@H](C(N)=O)n1ccc2c(C(=O)NCC3(O)CCCCCC3)cccc2c1=O` [Compound 2057], in data set [1], the inhibition at 0.3 µM is greater than 76% and the IC50 worked out at 26.1 nM.
Consider `O=C(NCC1CCCCC1)c1ncnc2c1CCN(Cc1ccccc1)C2` [Compound 2004], for which the inhibition at 0.3 µM in data set [1] was 0 to 25%.
In the case of `COCC(O)Cn1ccc2c(C(=O)NCC3(O)CCCC(C)(C)C3)cccc2c1=O` (stereo not shown) [Compound 2046], in data set [1], the inhibition at 0.3 µM was in the range of 0 to 25% and the 50% inhibitory concentration (IC50) was greater than 1000 nM.
Regarding `COCC(O)Cn1ccc2c(C(=O)NCC3CCCCCC3)cccc2c1=O` (stereo not shown) [Compound 2044], in data set [1], the inhibition at 0.3 µM was 0 to 25% and the IC50 is greater than 1000 nM.
The like results for `O=C(NCc1ccc(Cl)c(C(F)(F)F)c1)c1cccc2c(=O)n(C3CC3)ccc12` [Compound 2078] were, in that order, greater than 76% and 59.4 nM.
The matching figures for `CC(C(N)=O)n1ccc2c(C(=O)NCC3CCCCC3)cccc2c1=O` (stereo not shown) [Compound 2049]: greater than 76% and 122 nM.
The like results for `CC(C(N)=O)n1ccc2c(C(=O)NCC3CCCCCC3)cccc2c1=O` (stereo not shown) [Compound 2050] were, in that order, 0 to 25% and 654 nM.
In the case of `O=C(NCC1CCCCC1)c1ncnc2c1CCN(Cc1ccncc1)C2` [Compound 2007], the inhibition at 0.3 µM in data set [1] was in the range of 0 to 25%.
Turning to `O=C(NCC1CCCCC1)c1cccc2c(=O)n(CCO)ccc12` [Compound 2052], in data set [1], the inhibition at 0.3 µM was 0 to 25% and the IC50 was 694 nM.
Turning to `C[C@@H](C(N)=O)n1ccc2c(C(=O)NCC3(O)CCCCCC3)cccc2c1=O` [Compound 2056], in data set [1], the inhibition at 0.3 µM is 26 to 50% and the half-inhibitory concentration (IC50) came out at 506 nM.
Turning to `O=C(NCC1CCCCC1)c1ncnc2c1CCN(Cc1ccccn1)C2` [Compound 2010], in data set [1], the inhibition at 0.3 µM was 0 to 25%.
As to `C[C@@H](NC(=O)c1cccc2c(=O)n([C@@H](C)C(N)=O)ccc12)c1ccc(Cl)cc1` [Compound 2067], in data set [1], the inhibition at 0.3 µM lay within 0 to 25% and the half-maximal inhibitory concentration (IC50) was greater than 1000 nM.
As to `C[C@H](CO)n1ccc2c(C(=O)NCc3ccc(C(F)(F)F)cc3)cccc2c1=O` [Compound 2068], in data set [1], the inhibition at 0.3 µM was in the range of 51 to 75% and the IC50 worked out at 212 nM.
As to `C[C@H](CO)n1ccc2c(C(=O)NCC3CCCCCC3)cccc2c1=O` [Compound 2069, 2-((R)-2-Hydroxy-1-methyl-ethyl)-1-oxo-1,2-dihydro-isoquinoline-5-carboxylic acid cycloheptylmethyl-amide], in data set [1], the inhibition at 0.3 µM is greater than 76% and the IC50 was determined as 6.91 nM.
As to `O=C(NCC1CCCCCC1)c1cccc2c(=O)n(Cc3ccc4c(c3)OCCO4)ccc12` [Compound 2036], in data set [1], the inhibition at 0.3 µM is greater than 76% and the 50% inhibitory concentration (IC50) amounted to 11.6 nM.
Turning to `O=C(NCC1CCCCCC1)c1cccc2c1CCN(C(CO)CO)C2=O` [Compound 2037], in data set [1], the inhibition at 0.3 µM lay in the range of 51 to 75% and the IC50 turned out to be 138 nM.
The like results for `O=C(NCCc1ccccc1Cl)c1ncnc2c1CCN(Cc1ccccc1)C2` [Compound 2001] were, in that order, 0 to 25% and greater than 1000 nM.
With `O=C(NCCc1ccccc1)c1ncnc2c1CCNC2` [Compound 2003], the inhibition at 0.3 µM in data set [1] lay within 0 to 25%.
`O=C(NCC1(O)CCCCCC1)c1ncnc2c1CCN(Cc1ccccc1)C2` [Compound 2016]: in data set [1], the inhibition at 0.3 µM was in the range of 0 to 25%.
As for `CC(=O)Nc1ccc(CN2CCc3c(ncnc3C(=O)NCC3CCCCC3)C2)cc1` [Compound 2015], the inhibition at 0.3 µM in data set [1] lay in the range of 0 to 25%.
With `O=C(NCc1ccc(Cl)c(F)c1)c1cccc2c(=O)n(C3CC3)ccc12` [Compound 2074], in data set [1], the inhibition at 0.3 µM was greater than 76% and the 50% inhibitory concentration (IC50) amounted to 107 nM.
As to `CS(=O)(=O)c1ccc(CN2CCc3c(ncnc3C(=O)NCC3CCCCC3)C2)cc1` [Compound 2014], the inhibition at 0.3 µM in data set [1] fell in the range of 0 to 25%.
In the case of `C[C@H](NC(=O)c1cccc2c(=O)n([C@@H](C)C(N)=O)ccc12)c1ccc(Cl)cc1` [Compound 2066], in data set [1], the inhibition at 0.3 µM is 0 to 25% and the IC50 was greater than 1000 nM.
With `O=C(NCC1CCCCC1)c1ncnc2c1CCN(Cc1cccc(Cl)c1)C2` [Compound 2011], the inhibition at 0.3 µM in data set [1] fell in the range of 0 to 25%.
On the same count and under the same terms, under `O=C(NCC1CCCCC1)c1ncnc2c1CCN(Cc1cccnc1)C2` [Compound 2006] stands 0 to 25%.
As to `O=C(NCC1CCCCCC1)c1cccc2c(=O)n(C3CC3)ccc12` [Compound 2070, 2-Cyclopropyl-1-oxo-1,2-dihydro-isoquinoline-5-carboxylic acid cycloheptylmethyl-amide], in data set [1], the inhibition at 0.3 µM is greater than 76% and the IC50 was found to be 16.5 nM.
The matching figures for `CC1(C)OCC(Cn2ccc3c(C(=O)NCC4CCCCCC4)cccc3c2=O)O1` (stereo not shown) [Compound 2038]: 0 to 25% and 606 nM.
`COc1ccc(CN2CCc3c(ncnc3C(=O)NCC3CCCCC3)C2)cc1` [Compound 2012]: the inhibition at 0.3 µM in data set [1] was in the range of 0 to 25%.
Turning to `CC1(C)CC(C)(C)CC(O)(CNC(=O)c2cccc3c(=O)n(C(CO)CO)ccc23)C1` [Compound 2054], in data set [1], the inhibition at 0.3 µM fell in the range of 51 to 75% and the concentration for half-maximal inhibition (IC50) worked out at 233 nM.
The matching figures for `C[C@H](C(N)=O)n1ccc2c(C(=O)NCc3ccc(Cl)c(C(F)(F)F)c3)cccc2c1=O` [Compound 2058, 2-((R)-1-Carbamoyl-ethyl)-1-oxo-1,2-dihydro-isoquinoline-5-carboxylic acid 4-chloro-3-trifluoromethyl-benzylamide]: greater than 76% and 21 nM.
The matching figures for `O=C(NCc1ccc(F)c(C(F)(F)F)c1)c1cccc2c(=O)n(C3CC3)ccc12` [Compound 2075]: greater than 76% and 158 nM.
The like results for `Cn1ccc2c(C(=O)NCC3(O)CCCC(C)(C)C3)cccc2c1=O` (stereo not shown) [Compound 2045] were, in that order, 0 to 25% and greater than 1000 nM.
